Columns and labels:
Type in all cases: cell-based
[1] = target: T1, human prostanoid FP receptor (Homo sapiens, UniProt P43088); assay: FLIPR Ca2+ signaling antagonist assay, FP receptor stable cell line; settings: HEK-293 EBNA stable cell line; standard agonist 17-phenyl-PGF2α; NA = inactive (no antagonism or Kb 10,000 nM); PAg, Ag not defined
T1 construct: expressed in transfected cells
Procedure: (§1) The above compounds were tested for PG antagonist activity as follows using human recombinant prostanoid receptor (DP1, EP1-4, FP, IP and TP) stable cell lines:
(§2) In order to measure the response of Gs and Gi coupled prostanoid receptors as a Ca^2+ signal, chimeric G protein cDNAs were used. Stable cell lines over-expressing human prostanoid DP1, EP1-4, FP, IP, and TP receptors were established as follows:
(§3) Briefly, human prostanoid DP1, EP2, and EP4 receptor cDNAs were co-transfected with chimeric Gqs cDNA containing a haemagglutanin (HA) epitope; human prostanoid EP3 receptors were co-transfected with chimeric Gqi-HA; human EP1, FP, IP, and TP receptor cDNAs were expressed with no exogenous G-proteins. Gqs and Gqi chimeric cDNAs (Molecular Devices, Sunnyvale, Calif., U.S.A.), as well as cDNAs of prostanoid receptors, were cloned into a pCEP4 vector with a hygromycin B selection marker. Transfection into HEK-293 EBNA (Epstein-Barr virus nuclear antigen) cells was achieved by the FuGENE 6 transfection Reagent (Roche Applied Science, Indianapolis, Ind., USA). Stable transfectants were selected according to hygromycin resistance. Because Gqs and Gqi contained an HA epitope, G-protein expression was detected by Western blotting analysis using anti-mouse HA monoclonal antibody and horseradish peroxidase (HRP)-conjugated secondary antibody, while functional expression of prostanoid receptors was detected by FLIPR screening (Matias et al., 2004). These stable cell lines were validated using previously published antagonists at 10 μM against serial dilutions of standard agonists by FLIPR functional assays for Ca^2+ Signaling (as described below).
(§4) Ca^2+ signaling studies were performed using a FLIPR TETRA system (Molecular Devices, Sunnyvale, Calif., USA) in the 384-format. This is a high-throughput instrument for cell-based assays to monitor Ca^2+ signaling associated with GPCRs and ion channels. Cells were seeded at a density of 5×10^4 cells/well in BioCoat poly-D-lysine coated, black wall, clear bottom 384-well plates (BD Biosciences, Franklin lakes, NJ, USA) and allowed to attach overnight in an incubator at 37° C. The cells were then washed twice with HBSS-HEPES buffer (Hanks' balanced salt solution without bicarbonate and phenol red, 20 mM HEPES, pH 7.4) using an ELx405 Select CW Microplate Washer (BioTek, Winooski, Vt., USA). After 60 min of dye-loading in the dark using the Ca^2+-sensitive dye Fluo-4AM (Invitrogen, Carlsbad, Calif., USA), at a final concentration of 2×10^−6M, the plates were washed 4 times with HBSS-HEPES buffer to remove excess dye and leaving 50 μl of buffer in each well. The plates were then placed in the FLIPR TETRA instrument and allowed to equilibrate at 37° C. AGN-211377 was added in a 25 μl volume to each well to give final concentrations of 0.1 μM, 0.3 μM, 1 μM, 3 μM, 10 μM, and 30 μM; or 0.067 μM, 0.1 μM, 0.2 μM, 0.3 μM, 0.67 μM, and 1 μM for cells over-expressing TP receptors. After 4.5 minutes, a 7-point serial dilution of the standard agonist for the corresponding receptor, in a 25 μl volume was injected at the final concentrations from 10^−11M to 10^−5M in 10-fold serial dilution increments for cells expressing human recombinant DP1, EP1, EP2, EP3, EP4, FP, and IP receptors. The dose range for the standard agonist for human recombinant TP receptors was from 10^−12 M to 10^−6 M. HBSS-HEPES buffer was used as the negative control for the standard agonists. Cells were excited with LED (light emitting diode) excitation at 470-495 nm and emission was measured through an emission filter at 515-575 nm. Assay plates were read for 3.5 minutes using the FLIPR^TETRA. The peak increase in fluorescence intensity was recorded for each well. On each plate, negative controls, dose response of positive controls, and co-treatments of antagonist-agonist for each dose were in triplicates.
(§5) Standard agonists were as follows: DP=BW 245C, EP1-EP4=PGE2, FP=17-phenyl-PGF2α, IP=Cicaprost, and TP=U-46619. […]

[2] = target: T2, human prostanoid TP receptor (Homo sapiens, UniProt P21731); assay: FLIPR Ca2+ signaling antagonist assay, TP receptor stable cell line; settings: HEK-293 EBNA stable cell line; standard agonist U-46619; NA = inactive (no antagonism or Kb 10,000 nM); PAg, Ag not defined
T2 construct: expressed in transfected cells
T2 sequence (P21731 1-343): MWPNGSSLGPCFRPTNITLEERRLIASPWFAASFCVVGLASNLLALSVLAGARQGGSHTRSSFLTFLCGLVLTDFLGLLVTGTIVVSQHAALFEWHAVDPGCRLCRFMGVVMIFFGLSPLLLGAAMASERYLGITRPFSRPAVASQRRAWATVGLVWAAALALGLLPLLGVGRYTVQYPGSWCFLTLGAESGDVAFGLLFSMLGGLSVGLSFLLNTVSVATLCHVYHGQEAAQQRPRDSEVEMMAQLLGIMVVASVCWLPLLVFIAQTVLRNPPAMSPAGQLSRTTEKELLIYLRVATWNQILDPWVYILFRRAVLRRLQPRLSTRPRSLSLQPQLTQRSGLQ
Procedure: as §1, §2, §3, §4, §5

[3] = target: T3, human prostanoid EP4 receptor (Homo sapiens, UniProt P35408); assay: FLIPR Ca2+ signaling antagonist assay, EP4 receptor stable cell line; settings: HEK-293 EBNA stable cell line; standard agonist PGE2; NA = inactive (no antagonism or Kb 10,000 nM); PAg, Ag not defined
T3 construct: expressed in transfected cells
T3 sequence (P35408 whole entry): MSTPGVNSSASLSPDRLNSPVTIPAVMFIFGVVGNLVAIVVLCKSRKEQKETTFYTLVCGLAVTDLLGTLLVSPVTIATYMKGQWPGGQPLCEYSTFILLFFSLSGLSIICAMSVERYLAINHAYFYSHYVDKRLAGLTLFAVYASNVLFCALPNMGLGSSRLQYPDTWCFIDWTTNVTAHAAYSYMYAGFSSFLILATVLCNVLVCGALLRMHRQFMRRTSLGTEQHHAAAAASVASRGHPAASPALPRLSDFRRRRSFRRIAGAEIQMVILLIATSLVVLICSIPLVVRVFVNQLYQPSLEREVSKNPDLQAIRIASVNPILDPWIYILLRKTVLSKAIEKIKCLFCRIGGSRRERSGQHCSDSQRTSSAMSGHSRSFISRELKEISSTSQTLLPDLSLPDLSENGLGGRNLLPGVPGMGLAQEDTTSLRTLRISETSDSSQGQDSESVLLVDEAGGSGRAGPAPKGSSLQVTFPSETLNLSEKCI
Procedure: as §1, §2, §3, §4, §5

[4] = target: T4, human prostanoid EP1 receptor (Homo sapiens, UniProt P34995); assay: FLIPR Ca2+ signaling antagonist assay, EP1 receptor stable cell line; settings: HEK-293 EBNA stable cell line; standard agonist PGE2; NA = inactive (no antagonism or Kb 10,000 nM); PAg, Ag not defined
T4 construct: expressed in transfected cells
T4 sequence (P34995 1-402): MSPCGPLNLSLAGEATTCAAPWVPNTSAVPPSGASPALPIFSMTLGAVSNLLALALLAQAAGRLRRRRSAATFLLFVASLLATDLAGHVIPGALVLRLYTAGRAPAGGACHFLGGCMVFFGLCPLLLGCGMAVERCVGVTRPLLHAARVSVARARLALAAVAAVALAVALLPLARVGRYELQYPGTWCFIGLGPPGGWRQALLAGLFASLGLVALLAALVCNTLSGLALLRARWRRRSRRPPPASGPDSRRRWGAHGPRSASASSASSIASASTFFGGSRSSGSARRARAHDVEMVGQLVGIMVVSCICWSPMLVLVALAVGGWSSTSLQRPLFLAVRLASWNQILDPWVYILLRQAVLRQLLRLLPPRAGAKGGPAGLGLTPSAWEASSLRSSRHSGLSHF
Procedure: as §1, §2, §3, §4, §5

[5] = target: T5, human prostanoid IP receptor (Homo sapiens, UniProt P43119); assay: FLIPR Ca2+ signaling antagonist assay, IP receptor stable cell line; settings: HEK-293 EBNA stable cell line; standard agonist Cicaprost; NA = inactive (no antagonism or Kb 10,000 nM); PAg, Ag not defined
T5 construct: expressed in transfected cells
T5 sequence (P43119 whole entry): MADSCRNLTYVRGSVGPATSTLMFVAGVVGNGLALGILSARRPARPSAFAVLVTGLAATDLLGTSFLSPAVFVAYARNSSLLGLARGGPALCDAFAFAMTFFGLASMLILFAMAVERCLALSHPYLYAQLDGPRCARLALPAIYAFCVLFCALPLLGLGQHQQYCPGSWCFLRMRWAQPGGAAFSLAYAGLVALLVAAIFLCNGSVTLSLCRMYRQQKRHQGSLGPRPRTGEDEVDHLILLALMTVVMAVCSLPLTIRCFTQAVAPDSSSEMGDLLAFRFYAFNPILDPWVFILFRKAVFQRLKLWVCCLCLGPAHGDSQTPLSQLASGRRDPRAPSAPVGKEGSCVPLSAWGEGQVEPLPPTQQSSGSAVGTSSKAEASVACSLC
Procedure: as §1, §2, §3, §4, §5

[6] = target: T6, human prostanoid DP1 receptor (Homo sapiens, UniProt Q13258); assay: FLIPR Ca2+ signaling antagonist assay, DP1 receptor stable cell line; settings: HEK-293 EBNA stable cell line; standard agonist BW 245C; NA = inactive (no antagonism or Kb 10,000 nM); PAg, Ag not defined
T6 construct: expressed in transfected cells
T6 sequence (Q13258 1-359): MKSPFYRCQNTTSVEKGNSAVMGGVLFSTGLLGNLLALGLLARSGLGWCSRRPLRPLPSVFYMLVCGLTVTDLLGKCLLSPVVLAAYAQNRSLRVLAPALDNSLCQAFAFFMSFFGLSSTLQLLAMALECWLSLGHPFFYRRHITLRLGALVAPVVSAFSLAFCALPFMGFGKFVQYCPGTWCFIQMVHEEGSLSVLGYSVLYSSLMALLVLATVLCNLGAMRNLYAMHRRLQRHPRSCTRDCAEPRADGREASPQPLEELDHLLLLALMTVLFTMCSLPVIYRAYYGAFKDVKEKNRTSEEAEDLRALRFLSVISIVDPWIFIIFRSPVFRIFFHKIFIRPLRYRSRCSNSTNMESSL
Procedure: as §1, §2, §3, §4, §5

T1 sequence (P43088 whole entry): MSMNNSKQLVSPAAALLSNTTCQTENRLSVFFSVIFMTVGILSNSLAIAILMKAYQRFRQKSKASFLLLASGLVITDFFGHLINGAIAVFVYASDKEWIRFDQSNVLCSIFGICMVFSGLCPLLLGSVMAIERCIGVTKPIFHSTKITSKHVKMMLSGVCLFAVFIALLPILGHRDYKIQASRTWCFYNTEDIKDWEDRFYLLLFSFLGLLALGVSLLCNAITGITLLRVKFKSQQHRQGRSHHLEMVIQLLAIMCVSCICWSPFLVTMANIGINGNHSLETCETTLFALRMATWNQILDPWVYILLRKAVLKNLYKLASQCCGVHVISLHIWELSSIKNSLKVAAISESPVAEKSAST

Kb [1] [nM]	Kb [3] [nM]	Kb [4] [nM]	Kb [5] [nM]	Kb [6] [nM]	Kb [2] [nM]	EP1 (FLIPR) Kb [4]	IP (FLIPR) Kb [5]	SMILES	TP (FLIPR) Kb [2]
600	3600	140	6000	1900	8			Cc1cc(CCC(=O)O)nn1Cc1cc(Cl)ccc1OCC1(C(F)(F)F)CCC1 [Example 38, 3-[1-(5-Chloro-2-(1-trifluoromethylcyclobutylmethoxy)benzyl)-5-methyl-1H-pyrazol-3-yl]-propionic acid]	
90	600	140	5200	340	< 1			CCC(C)CCOc1ccc(Cl)cc1Cn1nc(CCC(=O)O)cc1C (stereo not drawn) [Example 22, 3-[1-(5-Chloro-2-(3-methylpentyloxy)benzyl)-5-methyl-1H-pyrazol-3-yl]-propionic acid]	
1900	1890	600	6900	1500	700			COc1ccc(OCC2CCCC2)c(Cn2nc(CCC(=O)O)cc2C)c1 [Example 53, 3-[1-(2-Cyclopentylmethoxy-5-methoxy-benzyl)-5-methyl-1H-pyrazol-3-yl]-propionic acid]	
500	8100		2000	400	500	PAg		CCCCCCCOc1ccc(Br)cc1Cn1nc(CCC(=O)O)cc1C [Example 15, 3-[1-(5-Bromo-2-heptyloxybenzyl)-5-methyl-1H-pyrazol-3-yl]-propionic acid]	
200	2500			240		Ag	Ag	Cc1cc(CCC(=O)O)nn1Cc1cc(Cl)ccc1OCC1CCCCC1 [Example 34, 3-[1-(5-Chloro-2-(cyclohexyl-methoxy)benzyl)-5-methyl-1H-pyrazol-3-yl]-propionic acid]	Ag
130	80	30	2000	450	120			Cc1cc(CC(C)C(=O)O)nn1Cc1cc(Cl)ccc1OCC1CCCC1 (racemic) [Example 70, 3-{1-[5-Chloro-2-(2-cyclopentylmethoxy)-benzyl]-5-methyl-1H-pyrazol-3-yl}-2-methyl-propionic acid]	
3500	3300	1300	2200	600	190			Cc1cc(CCC(=O)O)nn1Cc1cc(Cl)ccc1CCC1CCCC1 [Example 74]	

SMILES	Kb [1] [nM]	Kb [3] [nM]	Kb [4] [nM]	Kb [5] [nM]	Kb [6] [nM]	Kb [2] [nM]	EP1 (FLIPR) Kb [4]	IP (FLIPR) Kb [5]	TP (FLIPR) Kb [2]
CCC(CC)COc1ccc(-c2ccccc2)cc1Cn1nc(CCC(=O)O)cc1C [Example 63, 3-{1-[4-(2-Ethyl-butoxy)-biphenyl-3-ylmethyl]-5-methyl-1H-pyrazol-3-yl}-propionic acid]	60	4000	700	2200	170				PAg
CCC(CC)COc1ccc(C#N)cc1Cn1nc(CCC(=O)O)cc1C [Example 60, 3-{1-[5-Cyano-2-(2-ethyl-butoxy)-benzyl]-5-methyl-1H-pyrazol-3-yl}-propionic acid]	1400	2400	2100	5400	4400	120			
CCc1ccc(OCC(CC)CC)c(Cn2nc(CCC(=O)O)cc2C)c1 [Example 66, 3-{1-[5-Ethyl-2-(2-ethyl-butoxy)-benzyl]-5-methyl-1H-pyrazol-3-yl}-propionic acid]	500	900	100	1500	260	8			
CCC(CC)COc1ccc(Br)cc1Cn1ccc(CCC(=O)O)n1 [Example 59, 3-{1-[5-Bromo-2-(2-ethyl-butoxy)-benzyl]-1H-pyrazol-3-yl}-propionic acid]	1200	100	160	2700	300	1			

Reference: patent publication US9394284B2, “Compounds act at multiple prostaglandin receptors giving a general anti-inflammatory response” (Allergan, Inc., priority 2010, dated 2016)
